Laboratory results from patent US20260022142A1, “MACROCYCLIC IMMUNOMODULATORS” (Bristol-Myers Squibb Company, priority 2022, published 2026).
Numbered stars: 1 amine (or outer) side, 2 acyl side, 3 side chain; on linkers, the order of the positions; unused ones are H or OH. Bridge positions count the residues as written; N and C are the ends. Square brackets hold non-standard residues; d marks the D form. Peptide text beside a SMILES is read from it. * marks the point of attachment. ξ: configuration not given here. X2 = CC(C)C[C@H](N[*:1])C(=O)C[C@H](C(=O)[*:2])C(C)C; Ala(morpholin-4-yl) = N[C@@H](CN1CCOCC1)C(=O)O; Phe(4-COOH) = N[C@@H](Cc1ccc(C(=O)O)cc1)C(=O)O; Bip = N[C@@H](Cc1ccc(-c2ccccc2)cc1)C(=O)O; Phe(3-Me) = Cc1cccc(C[C@H](N)C(=O)O)c1; γGlu = O=C(O)[C@H](CCC(=O)[*:2])N[*:1]; Val(3-OH) = CC(C)(O)[C@H](N)C(=O)O; Val(3-F) = CC(C)(F)[C@H](N)C(=O)O; hArg = N=C(N)NCCCC[C@H](N)C(=O)O; 4Pal = N[C@@H](Cc1ccncc1)C(=O)O; Cha = N[C@@H](CC1CCCCC1)C(=O)O; Cit = NC(=O)NCCC[C@H](N)C(=O)O; Ile(3ξ) = CCC(C)[C@H](N)C(=O)O; Thr(3ξ) = CC(O)[C@H](N)C(=O)O; 12Ado = NCCCCCCCCCCCC(=O)O; dDab = NCC[C@@H](N)C(=O)O; Carboxymethyl = O=C(O)C*; Orn = NCCC[C@H](N)C(=O)O; Pra = C#CC[C@H](N)C(=O)O; Aun = NCCCCCCCCCCC(=O)O; Dab = NCC[C@H](N)C(=O)O; Dap = NC[C@H](N)C(=O)O; AEEA = NCCOCCOCC(=O)O

The compounds below were run against T1, PD-1/PD-L1 interaction (PE-labeled human PD-L1-Ig binding to Jurkat cell line over-expressing human PD-1) (Homo sapiens, UniProt Q15116) (assay: Jurkat-PD-1 Cell Binding High-Content Screening Assay (CBA)). Settings: Jurkat cell line over-expressing human PD-1; PE-labeled PD-L1-Ig 20 nM final; read-out: Jurkat hPD1-PDL1 IC50.
T1 construct: expressed in transfected cells; host or cells: Jurkat
T1 sequence (Q15116 25-288): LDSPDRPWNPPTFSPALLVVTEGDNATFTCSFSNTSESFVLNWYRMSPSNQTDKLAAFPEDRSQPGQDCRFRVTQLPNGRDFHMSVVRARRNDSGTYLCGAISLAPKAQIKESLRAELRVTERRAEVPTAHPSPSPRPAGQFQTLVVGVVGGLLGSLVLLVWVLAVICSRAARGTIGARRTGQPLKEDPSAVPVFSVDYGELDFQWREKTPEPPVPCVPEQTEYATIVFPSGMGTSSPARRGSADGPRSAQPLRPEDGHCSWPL
Format: cell-based
Outline: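 Jurkat cells over-expressing human PD-1 (8×10^3 per well, DMEM/10% FCS) preincubated with compound 2 h at 37° C, then PE-labeled human PD-L1-Ig (20 nM final) added for 1 h. Cells fixed with paraformaldehyde, Hoechst-stained, and bound fluorescence quantified by high-content imaging.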

| SMILES | IC50 [nM] |
| --- | --- |
| CCC(C)[C@@H]1NC(=O)[C@H](Cc2ccc(-c3ccccc3)cc2)NC(=O)[C@H](CC(C)C)NC(=O)[C@H](Cc2cccc(C)c2)NC(=O)[C@H](CC(=O)O)NC(=O)[C@H](Cc2ccc(OCC(=O)O)cc2)NC(=O)[C@H](Cc2ccc(OCC(=O)O)cc2)NC(=O)CSC[C@@H](C(=O)NCCOCCOCC(=O)N[C@@H](CCC(=O)NCCCCCCCCCCC(=O)O)C(=O)O)NC(=O)[C@H](CO)NC(=O)[C@H](C(C)C)NC(=O)[C@H](CC(C)C)NC(=O)[C@H](CCN)NC(=O)[C@@H](CC(C)C)NC(=O)[C@H](CCCN)NC1=O (stereo partly drawn) [Compound 3085] ({CH2CO}-Y(Carboxymethyl)Y(Carboxymethyl)D[Phe(3-Me)]L[Bip][Ile(3ξ)][Orn][dL][Dab]LVSC[AEEA][γGlu][Aun]-OH; thioether N-14) | 12 |
| Cc1cccc(C[C@@H]2NC(=O)[C@H](CC(=O)O)NC(=O)[C@H](Cc3ccc(OCC(=O)O)cc3)NC(=O)[C@H](CN)NC(=O)CSC[C@@H](C(=O)N[C@@H](CCCCN)C(=O)NCCCCCCCCCCC(=O)O)NC(=O)[C@@H](CO)NC(=O)[C@H](C(C)C)NC(=O)[C@H](CC(C)C)NC(=O)[C@H](CCN)NC(=O)[C@@H](CC(C)C)NC(=O)[C@H](CCCN)NC(=O)[C@H](C(C)C)NC(=O)[C@H](Cc3ccc(-c4ccccc4)cc3)NC(=O)[C@H](C(C)C)NC2=O)c1 [Compound 2009] ({CH2CO}-[Dap]Y(Carboxymethyl)D[Phe(3-Me)]V[Bip]V[Orn][dL][Dab]LV[dS]CK[Aun]-OH; thioether N-14) | 17.2 |
| Cc1cccc(C[C@@H]2NC(=O)[C@H](CC(=O)O)NC(=O)[C@H](Cc3ccc(OCC(=O)O)cc3)NC(=O)[C@H](Cc3ccncc3)NC(=O)CSC[C@@H](C(=O)N[C@@H](CCN)C(=O)NCCCCCCCCCCC(=O)O)NC(=O)[C@H]([C@@H](C)O)NC(=O)[C@H](C(C)C)NC(=O)[C@H](CC3CCCCC3)NC(=O)[C@H](CCN)NC(=O)[C@@H](CC(C)C)NC(=O)[C@H](CCCN)NC(=O)[C@H](Cc3ccc(OCC(=O)O)cc3)NC(=O)[C@H](Cc3ccc(-c4ccccc4)cc3)NC(=O)[C@H](Cc3ccc(OCC(=O)O)cc3)NC2=O)c1 [Compound 2924] ({CH2CO}-[4Pal]Y(Carboxymethyl)D[Phe(3-Me)]Y(Carboxymethyl)[Bip]Y(Carboxymethyl)[Orn][dL][Dab][Cha]VTC[Dab][Aun]-OH; thioether N-14) | 16.8 |
| C#CC[C@H](NC(=O)COCCOCCNC(=O)[C@H](CCN)NC(=O)[C@@H]1CSCC(=O)N[C@@H](Cc2ccncc2)C(=O)N[C@@H](Cc2ccc(OCC(=O)O)cc2)C(=O)N[C@@H](CC(=O)O)C(=O)N[C@@H](Cc2c[nH]c3ccccc23)C(=O)N[C@@H](C(C)C)C(=O)N[C@@H](Cc2ccc(-c3ccccc3)cc2)C(=O)N[C@@H]([C@@H](C)CC)C(=O)N[C@@H](CCCN)C(=O)N[C@H](CC(C)C)C(=O)N[C@@H](CCN)C(=O)N[C@@H](CC(C)C)C(=O)N[C@@H](C(C)C)C(=O)N[C@@H]([C@@H](C)O)C(=O)N1)C(=O)N[C@@H](Cc1c[nH]cn1)C(=O)NCCCCCCCCCCC(=O)O [Compound 1198] ({CH2CO}-[4Pal]Y(Carboxymethyl)DWV[Bip]I[Orn][dL][Dab]LVTC[Dab][AEEA][Pra]H[Aun]-OH; thioether N-14) | 15.1 |
| C#CC[C@H](NC(=O)[C@H](CCN)NC(=O)[C@@H]1CSCC(=O)N[C@@H](CN2CCOCC2)C(=O)N[C@@H](Cc2ccc(OCC(=O)O)cc2)C(=O)N[C@@H](CC(=O)O)C(=O)N[C@@H](Cc2cccc(C)c2)C(=O)N[C@@H](Cc2ccc(C(=O)O)cc2)C(=O)N[C@@H](Cc2ccc(-c3ccccc3)cc2)C(=O)N[C@@H](Cc2ccc(C(=O)O)cc2)C(=O)N[C@@H](CCCN)C(=O)N[C@H](CC(C)C)C(=O)N[C@@H](CCN)C(=O)N[C@@H](CC2CCCCC2)C(=O)N[C@@H](C(C)(C)O)C(=O)N[C@@H](CO)C(=O)N1)C(=O)NCCCCCCCCCCC(=O)O [Compound 1286] ({CH2CO}-[Ala(morpholin-4-yl)]Y(Carboxymethyl)D[Phe(3-Me)][Phe(4-COOH)][Bip][Phe(4-COOH)][Orn][dL][Dab][Cha][Val(3-OH)]SC[Dab][Pra][Aun]-OH; thioether N-14) | 5.6 |
| Cc1cccc(C[C@@H]2NC(=O)[C@H](CC(=O)O)NC(=O)[C@H](Cc3ccc(C(=O)O)cc3)NC(=O)[C@H](C(C)O)NC(=O)CSC[C@@H](C(=O)N[C@@H](CCN)C(=O)NCCOCCOCC(=O)NCCOCCOCC(=O)NCCCCCCCCCCC(=O)O)NC(=O)[C@H](CO)NC(=O)[C@H](C(C)(C)O)NC(=O)[C@H](CC3CCCCC3)NC(=O)[C@H](CCN)NC(=O)[C@@H](CC(C)C)NC(=O)[C@H](CCCN)NC(=O)[C@H](Cc3ccc(C(=O)O)cc3)NC(=O)[C@H](Cc3ccc(-c4ccccc4)cc3)NC(=O)[C@H](Cc3ccc(C(=O)O)cc3)NC2=O)c1 (stereo partly drawn) [Compound 3777] ({CH2CO}-[Thr(3ξ)][Phe(4-COOH)]D[Phe(3-Me)][Phe(4-COOH)][Bip][Phe(4-COOH)][Orn][dL][Dab][Cha][Val(3-OH)]SC[Dab][AEEA][AEEA][Aun]-OH; thioether N-14) | 3.4 |

Now from value to compound:

| IC50 [nM] | SMILES |
| --- | --- |
| 33.4 | Cc1cccc(C[C@@H]2NC(=O)[C@H](CC(=O)O)NC(=O)[C@H](Cc3ccc(OCC(=O)O)cc3)NC(=O)[C@H](CCCCNC(=N)N)NC(=O)CSC[C@@H](C(=O)N[C@@H](CCN)C(=O)NCCCCCCCCCCCC(=O)O)NC(=O)[C@H](C(C)O)NC(=O)[C@H](C(C)C)NC(=O)[C@H](CC3CCCCC3)NC(=O)[C@H](CCN)NC(=O)[C@@H](CC(C)C)NC(=O)[C@H](CCCN)NC(=O)[C@H](CCCNC(N)=O)NC(=O)[C@H](Cc3ccc(-c4ccccc4)cc3)NC(=O)[C@H](C(C)C)NC2=O)c1 (stereo partly drawn) [Compound 3551] ({CH2CO}-[hArg]Y(Carboxymethyl)D[Phe(3-Me)]V[Bip][Cit][Orn][dL][Dab][Cha]V[Thr(3ξ)]C[Dab][12Ado]-OH; thioether N-14) |
| 14.1 | Cc1cccc(C[C@@H]2NC(=O)[C@H](CC(=O)O)NC(=O)[C@H](Cc3ccc(OCC(=O)O)cc3)NC(=O)[C@H](CCCNC(=N)N)NC(=O)CSC[C@@H](C(=O)N[C@@H](CCN)C(=O)NCCCCCCCCCCC(=O)O)NC(=O)[C@H]([C@@H](C)O)NC(=O)[C@H](C(C)C)NC(=O)[C@H](CC3CCCCC3)NC(=O)[C@H](CCN)NC(=O)[C@@H](CC(C)C)NC(=O)[C@H](CCCN)NC(=O)[C@H](Cc3ccc(OCC(=O)O)cc3)NC(=O)[C@H](Cc3ccc(-c4ccccc4)cc3)NC(=O)[C@H](C(C)(C)F)NC2=O)c1 [Compound 2123] ({CH2CO}-RY(Carboxymethyl)D[Phe(3-Me)][Val(3-F)][Bip]Y(Carboxymethyl)[Orn][dL][Dab][Cha]VTC[Dab][Aun]-OH; thioether N-14) |
| 13.5 | CC(C)C[C@@H]1NC(=O)[C@H](CCN)NC(=O)[C@@H](CC(C)C)NC(=O)[C@H](CCCN)NC(=O)[C@H](C(C)C)NC(=O)[C@H](Cc2ccc(-c3ccccc3)cc2)NC(=O)[C@H](CC(C)C)NC(=O)[C@H](Cc2c[nH]c3ccccc23)NC(=O)[C@H](CC(=O)O)NC(=O)[C@H](Cc2ccncc2)NC(=O)[C@H](Cc2ccc(OCC(=O)O)cc2)NC(=O)CSC[C@@H](C(=O)N[C@H](CCN)C(=O)NCCOCCOCC(=O)NCCCCCCCCCCC(=O)O)NC(=O)[C@H](CO)NC(=O)[C@H](C(C)C)CC1=O [Compound 3072] ({CH2CO}-Y(Carboxymethyl)[4Pal]DWL[Bip]V[Orn][dL][Dab][X2]SC[dDab][AEEA][Aun]-OH; thioether N-13) |
| 45.9 | Cc1cccc(C[C@@H]2NC(=O)[C@H](CC(=O)O)NC(=O)[C@H](Cc3ccc(OCC(=O)O)cc3)NC(=O)[C@H](CCCCNC(=N)N)NC(=O)CSC[C@@H](C(=O)NCC(=O)N[C@@H](CCC(=O)O)C(=O)NCCCCCCCCCCCC(=O)O)NC(=O)[C@H](CO)NC(=O)[C@H](C(C)C)NC(=O)[C@H](CC3CCCCC3)NC(=O)[C@H](C(C)O)NC(=O)[C@@H](CC(C)C)NC(=O)[C@H](CCCN)NC(=O)[C@H](CCCNC(N)=O)NC(=O)[C@H](Cc3ccc(-c4ccccc4)cc3)NC(=O)[C@H](C(C)C)NC2=O)c1 (stereo partly drawn) [Compound 3182] ({CH2CO}-[hArg]Y(Carboxymethyl)D[Phe(3-Me)]V[Bip][Cit][Orn][dL][Thr(3ξ)][Cha]VSCGE[12Ado]-OH; thioether N-14) |
| 11.4 | CC(C)C[C@H]1NC(=O)[C@H](CCCN)NC(=O)[C@H](CCC(=O)O)NC(=O)[C@H](Cc2ccc(-c3ccccc3)cc2)NC(=O)[C@H](C(C)C)NC(=O)[C@H](Cc2c[nH]c3ccccc23)NC(=O)[C@H](CC(=O)O)NC(=O)[C@H](Cc2ccc(OCC(=O)O)cc2)NC(=O)[C@H](CN)NC(=O)CSC[C@@H](C(=O)N[C@@H](CCN)C(=O)NCCOCCOCC(=O)NCCCCCCCCCCC(=O)O)NC(=O)[C@H](CCCCN)NC(=O)[C@H](C(C)C)NC(=O)[C@H](CC2CCCCC2)NC(=O)[C@H](CCN)NC1=O [Compound 2660] ({CH2CO}-[Dap]Y(Carboxymethyl)DWV[Bip]E[Orn][dL][Dab][Cha]VKC[Dab][AEEA][Aun]-OH; thioether N-14) |
| 16.2 | Cc1cccc(C[C@@H]2NC(=O)[C@H](CC(=O)O)NC(=O)[C@H](Cc3ccc(OCC(=O)O)cc3)NC(=O)[C@H](CN)NC(=O)CSC[C@@H](C(=O)N[C@@H](CCN)C(=O)NCCCCCCCCCCC(=O)O)NC(=O)[C@H](CCC(N)=O)NC(=O)[C@H](C(C)C)NC(=O)[C@H](CC3CCCCC3)NC(=O)[C@H](CCN)NC(=O)[C@@H](CC(C)C)NC(=O)[C@H](CCCN)NC(=O)[C@H](CCCNC(N)=O)NC(=O)[C@H](Cc3ccc(-c4ccccc4)cc3)NC(=O)[C@H](C(C)C)NC2=O)c1 [Compound 1244] ({CH2CO}-[Dap]Y(Carboxymethyl)D[Phe(3-Me)]V[Bip][Cit][Orn][dL][Dab][Cha]VQC[Dab][Aun]-OH; thioether N-14) |
| 69.6 | Cc1cccc(C[C@@H]2NC(=O)[C@H](CC(=O)O)NC(=O)[C@H](Cc3ccc(OCC(=O)O)cc3)NC(=O)[C@H](CN)NC(=O)CSC[C@@H](C(=O)N[C@@H](CCN)C(=O)NCCCCCCCCCCC(=O)O)NC(=O)[C@H]([C@@H](C)O)NC(=O)[C@H](C(C)C)NC(=O)[C@H](CC3CCCCC3)NC(=O)[C@H](Cc3cnc[nH]3)NC(=O)[C@@H](CC(C)C)NC(=O)[C@H](CCCN)NC(=O)[C@H](C(C)C)NC(=O)[C@H](Cc3ccc(-c4ccccc4)cc3)NC(=O)[C@H](C(C)C)NC2=O)c1 [Compound 1101] ({CH2CO}-[Dap]Y(Carboxymethyl)D[Phe(3-Me)]V[Bip]V[Orn][dL]H[Cha]VTC[Dab][Aun]-OH; thioether N-14) |
